From patent US20250270648A1, “MOLECULAR SIGNATURE FOR ASSESSING THE RESPONSIVENESS OF CANCER TO MITOCHONDRIA-TARGETED ANTIOXIDANTS” (UNIVERSITÉ CATHOLIQUE DE LOUVAIN, priority 2021, published 2025)

Experiments:
[1] = test system: MDA-MB-231 cells; test: Clonogenic assay, adherent; assay type: cell-based, human; settings: MitoQ 100 nM, 48 h
Description: (§1) For adherent assays, MDA-MB-231 and SKBR3 cells were pre-treated for 48 h±MitoQ, and seeded (1,000 to 2,000 cells/well) in 6-well plates. After colony formation (2 weeks), cells were fixed and stained with 0.5% crystal violet in a 10% ethanol solution, for 30 min. Colonies were washed with water and counted. Results are expressed as surviving fraction (SF), where […].

[2] = test system: SkBr3 cells; test: Clonogenic assay, adherent; assay type: cell-based, human; settings: MitoQ 100 nM, 48 h
Description: as §1

[3] = test system: MDA-MB-231 human breast cancer cells; test: Metastatic take assay, tail vein injection of pretreated cells; assay type: in vivo, mouse; settings: cells pretreated 6 h with 1 μM MitoQ
Description: For metastasis take assays, cancer cells were pretreated ±MitoQ for 6 h, and 10^6 viable cells were injected into the tail vein of five weeks-old female Rj:NMRI-Foxn1nu/nu mice (Janvier). After 4 weeks, mice were sacrificed and the lungs insufflated with 3 mL of Indian ink (15% in ddH2O). Mouse lungs were removed, washed with PBS and incubated overnight in Fekete's solution (700 mL/L 100% ethanol, 32 mL/L 37% formalin, 40 mL/L glacial acetic acid, diluted in ddH2O). The next morning, lungs were transferred to a 70% ethanol solution and were further examined under a Stemi 2000-C dissection stereomicroscope (Zeiss®) to count the number of metastasis per lung.

[4] = test system: MDA-MB-436 spheroids; test: Spheres / stem-like spheroids; assay type: cell-based, human; settings: increasing doses of MitoQ, over 1 week
Description: 3D models were used to obtain an enriched population in stem cells. For that, 10^4 MDA-MB-231, SkBr3 or MDA-MB-436 cancer cells were grown in suspension using 10 cm dishes coated with Polyhema in stem-cell medium: DMEM/F-12 (Gibco®, cat #11320033) supplemented with 100 units/mL penicillin, 100 μg/mL streptomycin, 20 μL/mL B27 (Gibco®, cat #17504044), 20 ng/mL human recombinant epithelial growth factor (EGF) (Peprotech®, cat #AF-100-15), 10 ng/mL basic fibroblast growth factor (bFGF; Peprotech®, cat #100-18B) and 2.5 mg/mL insulin. When spheres reached around 100 μm in diameter, they were washed with PBS and dissociated with accutase (Stem Cell Technology®, cat #07920) in order to have single cells again. […] Images were captured on Axiovert™ 40 CFL microscope equipped with a MRC camera. At the end of the treatment, living cells were collected for RNA extraction.
Stem like-spheroids were prepared by seeding 5,000 MDA-MB-231, SkBr3 or MDA-MB-436 dissociated spheres/well in ultra-Low attachment 96-well plates (Corning®, cat #7007) in stem cell medium supplemented as described above. […] Spheroid growth was monitored using an Axio Observer live-cell phase contrast microscope (Zeiss®).

[5] = test system: MDA-MB-231 cells; test: Direct cell counting, MitoQ alone; assay type: cell-based, human
Description: (§2) To probe the effects of MitoQ alone on cell numbers, MDA-MB-231, SkBr3, MDA-MB-436 or MCF10A (2,500-10,000 cells/well) cells were plated in 96-well plates and treated with increasing concentrations of MitoQ. At each time point, the number of cells per well was measured using a SpectraMax i3 spectrophotometer equipped with a MiniMax™ imaging cytometer.

[6] = test system: SkBr3 cells; test: Direct cell counting, MitoQ alone; assay type: cell-based, human
Description: as §2

[7] = test system: MDA-MB-436 cells; test: Direct cell counting, MitoQ alone; assay type: cell-based, human; settings: increasing doses of MitoQ (0 to 500 nM)
Description: as §2

[8] = test system: MCF10A normal breast epithelial cells; test: Mitochondrial superoxide, EPR with MitoTEMPO-H ±PEG-SOD2; assay type: cell-based, human; settings: MitoQ 100 nM, 48 h
Description: Mitochondrial superoxide levels were determined using electron paramagnetic resonance (EPR) with MitoTEMPO-H as a specific mitochondrial superoxide probe ±PEG-SOD2 to specifically assign signals to mitochondrial superoxide. EPR measurements were performed using a Bruker EMX-Plus spectrometer, operating in X-band (9.85 GHz) and equipped with a PremiumX ultra low noise microwave bridge and a SHQ high sensitivity resonator. Typical settings were: microwave power: 20 mW; attenuation: 10 dB; modulation frequency: 100 kHz; modulation amplitude: 0.1 mT; time constant: 20.48 ms; conversion time: 22.58 ms; sweep width: 0.15 mT. Briefly, MDA-MB-231, SkBr3, MCF10A or MDA-MB-436 cells were treated ±MitoQ for 48 h, harvested and resuspended in PBS at 2×10^6 cells/mL. The experimental mixture was prepared with cell suspension, 1 mM DTPA and 150 μM MitoTEMPO-H. It was then aspirated into a gas-permeable polytetrafluoroethylene (PTFE) tubing that was placed in a quartz tube opened at both ends. The tube was directly inserted inside the EPR cavity that was heated at 310° K with air during all experiments. […] Net superoxide production was calculated by subtracting the double integration values of the […] with PEG-SOD2 to the control value at timepoint 15 min.

Q: How did the “clonogenicity in Petri dishes allowing adhesion” value [1] turn out when `COC1=C(OC)C(=O)C(CCCCCCCCCC[P+](c2ccccc2)(c2ccccc2)c2ccccc2)=C(C)C1=O` [MitoQ] was run?
A: Its value is “largely inhibited”.

Q: What about the “clonogenicity in Petri dishes allowing adhesion” value [2] of the same compound?
A: The value was “largely inhibited”.

Q: And the mice metastasis-free ([3]; at necropsy, four weeks)?
A: The mice metastasis-free was 36.4%.

Q: And the “mice with <2 metastasis” value ([3]; at necropsy, four weeks)?
A: The value was 27.2%.

Q: And the “mice with >2 lung metastases” value ([3]; at necropsy, four weeks)?
A: The value was 36.4%.

Q: What about the “metastasis developed vs mice that received vehicle-treated cells” value ([3]; four weeks after injection of 10^6 cells) of the same compound?
A: The value was “significantly less”.

Q: And the spheroid formation [4]?
A: Its spheroid formation is “dose-dependently retarded”.

Q: What about the “MitoQ dose starting from which cell number is reduced” value ([5]; doses 0 to 500 nM) of the same compound?
A: The value was no less than 500 nM.

Q: And the “cell numbers, dose dependence” value ([5]; increasing doses of MitoQ)?
A: Its value is “Dose-dependent decreases”.

Q: What about the “MitoQ dose from which cell numbers started to decrease” value ([6]; doses 0 to 500 nM) of the same compound?
A: Its value is no less than 250 nM.

Q: And the “cell numbers, dose dependence” value ([6]; increasing doses of MitoQ)?
A: Its value is “Dose-dependent decreases”.

Q: What about the cell numbers [7] of the same compound?
A: The cell numbers was “dose-dependently reduced”.

Q: And the mitochondrial superoxide production [8]?
A: The mitochondrial superoxide production was “not affected”.
